Assay results published in patent publication US20100316579A1, “NOVEL USE OF ALKYL PHOSPHATE ESTERS” (Glaxo Group Limited, priority 2006, published 2010).

Key:
[1] = Enamel solubility reduction (FDA ESR model #33 modified), citric acid challenge; conditions: for Enamel Solubility Reduction (%): 1.0% w/w citric acid monohydrate pH 3.75, alkyl phosphates 0.50% w/w aqueous, pH 7, normalised to water negative control
Description: (§1) FDA caries monograph enamel solubility reduction (ESR) model #33 is designed to evaluate in vitro the utility of fluoride toothpastes to protect enamel against a bacterial (lactic) acid challenge. In brief, enamel specimens are placed in a lactic acid challenge (pH 4.5) and the solubility determined by spectrophotometric analysis of released phosphate. Specimens are then placed in the relevant treatment solution derived from the supernatant of a 1:3 slurry of the toothpaste in deionised water. After 5 minutes the specimens are removed, rinsed, and placed in a fresh lactic acid challenge. The enamel solubility is determined once again, and the ESR value calculated as a percentage reduction relative to the baseline solubility.
The methodology described above was modified in order to evaluate the ability of putative anti-erosion actives to confer protection against a more aggressive dietary acid challenge. […] The alkyl phosphates were tested as 0.50% w/w aqueous solutions at pH 7. Fluoride was included as a positive control, and Crest Cavity Protection was also run as an additional control standard.

[2] = Inhibition of citric acid-mediated enamel surface softening (Vickers microhardness/microindentation); design: species or system human; conditions: Example 1; for enamel surface microhardness (baseline = 100): ± = standard deviation; for levels of protection compared among SDP, PDEP and fluoride positive control: at 10 and 20 minutes; for levels of protection compared among SDP, PDEP and fluoride positive control / protection versus the fluoride positive control: in words; for protection versus the fluoride positive control: at 30 minutes
Protocol: The first stage of dental erosion and acid wear involves demineralisation of the hard tissue surface and consequent surface softening. The present study employed a Duramin Microhardness Tester to assess the protective effect of SDP and PDEP against an erosive challenge based on citric acid.
Sound human enamel specimens were polished with 2400 grit abrasive and subsequently immersed in an aqueous solution of the specified treatment at pH 7 for 2 minutes under ambient conditions, with agitation. After rinsing with deionised water, the enamel specimens were exposed to an erosive challenge comprising an aqueous solution of 0.30% w/w citric acid monohydrate, pH 3.6. The extent of acid damage was assessed by monitoring the decrease in enamel surface hardness as a function of acid exposure time. The microhardness value for each specimen at a given time point was based on the mean of 6 indents. Each treatment leg employed 3 enamel specimens, which were randomised according to baseline microhardness. A 300 ppm fluoride ion solution (from NaF) was employed as the positive control; deionised water was employed as the negative control. The protective effects of combination treatment solutions i.e. 0.50% alkyl phosphate plus 300 ppm fluoride, were also investigated.
The actives were tested as aqueous solutions at 0.50% w/w and pH 7.

[3] = Enamel solubility reduction (FDA ESR model #33 modified), phosphoric acid challenge
Description: as §1
FDA ESR Model #33 was modified by replacing lactic acid with phosphoric acid, a dietary acid most commonly associated with cola drinks. Determination of enamel solubility in this study was based on analysis of the released calcium to prevent interference from the acid challenge.

[4] = 10 mins acid (0.30% w/w citric acid monohydrate, pH 3.6) after 2 min treatment at pH 7
[5] = 20 mins acid (0.30% w/w citric acid monohydrate, pH 3.6) after 2 min treatment at pH 7
[6] = 30 mins acid (0.30% w/w citric acid monohydrate, pH 3.6) after 2 min treatment at pH 7

## potassium dodecyl ether (1EO) phosphate [PDEP]
[1]
  Enamel Solubility Reduction (%): 17.77%
[1]; citric acid ESR, in words
  statistical comparison with the 300 ppm fluoride control: statistically inferior
[2]; [4]
  enamel surface microhardness (baseline = 100): 92.5 ± 1.8
[2]; [5]
  enamel surface microhardness (baseline = 100): 82.5 ± 2.7
[2]; [6]
  enamel surface microhardness (baseline = 100): 78 ± 2.8
[2]
  levels of protection compared among SDP, PDEP and fluoride positive control: comparable
  protection versus the fluoride positive control: statistically superior

## CCCCCCCCCCCCOP(=O)([O-])[O-].[Na+].[Na+] [SDP, sodium dodecyl phosphate]
[1]
  Enamel Solubility Reduction (%): 36.76%
[1]; citric acid ESR, in words
  directional comparison with fluoride: directionally superior
  statistical comparison with the 300 ppm fluoride control: not statistically different
[2]; [4]
  enamel surface microhardness (baseline = 100): 94 ± 1.7
[2]; [5]
  enamel surface microhardness (baseline = 100): 84 ± 4.0
[2]; [6]
  enamel surface microhardness (baseline = 100): 80 ± 2.0
[2]
  levels of protection compared among SDP, PDEP and fluoride positive control: comparable
  protection versus the fluoride positive control: statistically superior
[3]; in words
  protection against the phosphoric acid challenge compared to the negative water control: statistically significant protection
[3]; phosphoric acid ESR, in words
  acid protection versus the 300 ppm fluoride: statistically superior
[3]; phosphoric acid challenge, solubility from released calcium
  Enamel Solubility Reduction (%): 16.02%
